Tests used:
[1] = test system: lung adenocarcinoma cell line HCC4006; assay: HCC4006 cell growth inhibition test (Test Example 2); format: cell-based; settings: HCC4006 cells, culture for 5 days, CellTiter-Glo; for inhibition at 1 µM: read-out: Rate of inhibition (%) at 1 μM
Outline: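 HCC4006 cells in RPMI-1640 with 10% FBS were seeded at 250 cells/well and dosed with compound the next day. After 5 days, viability was read by CellTiter-Glo luminescence. Percent inhibition was calculated against no-compound control and cell-free blank.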

[2] = biological target: T1, SPT (SPT2-expressing membrane fraction: human SPT1, human SPT2 and human ssSPTa) (Homo sapiens, UniProt O15269+O15270); assay: SPT enzyme inhibition test (Test Example 1); format: biochemical; settings: for inhibition at 1 µM: read-out: Rate of inhibition (%) at 1 μM
T1 construct: Full-length human SPT1, human SPT2 and human ssSPTa used; made in house; host or cells: FreeStyle 293 cells (pcDNA3.1 vectors, cotransfection); crude membrane fraction used
T1 sequence (O15269 1-473): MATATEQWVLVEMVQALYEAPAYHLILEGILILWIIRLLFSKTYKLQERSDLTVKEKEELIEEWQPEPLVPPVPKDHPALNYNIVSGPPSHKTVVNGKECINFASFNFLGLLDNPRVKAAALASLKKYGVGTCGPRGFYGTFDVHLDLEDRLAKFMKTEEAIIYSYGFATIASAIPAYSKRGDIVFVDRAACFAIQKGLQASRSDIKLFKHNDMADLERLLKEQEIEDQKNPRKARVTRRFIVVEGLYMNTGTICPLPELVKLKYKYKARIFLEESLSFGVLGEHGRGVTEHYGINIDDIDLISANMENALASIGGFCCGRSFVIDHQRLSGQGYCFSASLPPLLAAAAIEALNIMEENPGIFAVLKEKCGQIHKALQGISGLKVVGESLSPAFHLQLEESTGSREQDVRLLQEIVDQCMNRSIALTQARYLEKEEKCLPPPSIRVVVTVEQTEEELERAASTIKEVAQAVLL
T1 sequence (O15270 1-562): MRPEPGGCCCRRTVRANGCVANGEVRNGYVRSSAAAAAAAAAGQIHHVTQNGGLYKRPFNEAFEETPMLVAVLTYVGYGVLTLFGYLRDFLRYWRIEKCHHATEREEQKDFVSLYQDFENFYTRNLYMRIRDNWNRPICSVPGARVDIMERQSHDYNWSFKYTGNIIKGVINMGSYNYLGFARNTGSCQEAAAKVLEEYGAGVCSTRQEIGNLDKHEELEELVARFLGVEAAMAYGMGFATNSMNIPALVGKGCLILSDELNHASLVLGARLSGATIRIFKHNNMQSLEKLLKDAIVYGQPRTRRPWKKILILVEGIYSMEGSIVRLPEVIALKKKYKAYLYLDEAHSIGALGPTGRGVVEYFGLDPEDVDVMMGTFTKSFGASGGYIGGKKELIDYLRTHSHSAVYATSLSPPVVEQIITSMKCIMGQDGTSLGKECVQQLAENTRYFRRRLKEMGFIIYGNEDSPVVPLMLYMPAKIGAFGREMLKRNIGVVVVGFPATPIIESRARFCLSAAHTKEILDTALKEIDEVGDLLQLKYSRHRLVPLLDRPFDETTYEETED
T1 sequence (Q969W0 1-71 partner): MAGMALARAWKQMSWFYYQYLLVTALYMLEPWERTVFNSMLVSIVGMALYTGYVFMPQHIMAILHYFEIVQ
Outline: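 Membrane fraction (100 μg/mL stock) of cells expressing human SPT1, SPT2 and ssSPTa was preincubated 60 min at RT with compound in 100 mM Hepes pH 8.0 containing EDTA, DTT and 0.01% BSA. Reaction ran 15 min at RT with 2 mM L-serine and 20 μM palmitoyl CoA (solution concentrations), then formic acid quench. Product measured by RapidFire mass spectrometry against a C17-sphinganine internal standard, giving % inhibition.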

[3] = Homo sapiens, 120 h, 1 μM test compound

SMILES	inhibition at 1 µM [2] [%]	Rate of inhibition (%) at 1 μM ([2]; 1 μM test compound, SPT2-expressing membrane fraction) [%]	inhibition at 0.3 µM ([1]; Homo sapiens, 120 h, 0.3 μM test compound, read-out: Rate of inhibition at 0.3 μM) [%]	inhibition at 1 µM [1, 3] [%]	Rate of inhibition (%) at 1 μM ([1]; 1 μM test compound) [%]
Cc1nn(C)c(Cl)c1C(=O)N[C@@H]1CCN(C(=O)c2cc(Cl)c3nccnc3c2)C[C@@H]1c1ccc(F)cc1 [Example 59B, 5-Chloro-N-((3S,4R)-1-((8-chloroquinoxalin-6-yl)carbonyl)-3-(4-fluorophenyl)piperidin-4-yl)-1,3-dimethyl-1H-pyrazole-4-carboxamide]	101	–	53	–	–
Cc1cc(C(=O)N[C@@H]2CCN(C(=O)c3cc(Cl)c4nccnc4c3)C[C@@H]2c2ccc(F)cc2)n(C)n1 [Example 58B, N-((3S,4R)-1-((8-chloroquinoxalin-6-yl)carbonyl)-3-(4-fluorophenyl)piperidin-4-yl)-1,3-dimethyl-1H-pyrazole-5-carboxamide]	101	–	–	49	–
Cn1nc(C(F)(F)F)cc1C(=O)N[C@@H]1CCN(C(=O)c2cc(Cl)c3nccnc3c2)C[C@@H]1c1ccc(F)cc1 [Example 96B, N-((3S,4R)-1-((8-chloroquinoxalin-6-yl)carbonyl)-3-(4-fluorophenyl)piperidin-4-yl)-1-methyl-3-(trifluoromethyl)-1H-pyrazole-5-carboxamide]	102	–	–	49	–
Cc1cc(C(=O)N2CC[C@@H](NC(=O)c3ncccc3C(F)(F)F)[C@@H](c3ccccc3)C2)cc2nccnc12 [Example 74B, N-((3S,4R)-1-((8-Methylquinoxalin-6-yl)carbonyl)-3-phenylpiperidin-4-yl)-3-(trifluoromethyl)pyridine-2-carboxamide]	100	–	–	45	–
COc1cc(C(=O)N2CC[C@@H](NC(=O)c3cc(C(F)(F)F)nn3C)[C@@H](c3ccc(F)cc3)C2)cc2nccnc12 [Example 352B, N-((3S,4R)-3-(4-fluorophenyl)-1-((8-methoxyquinoxalin-6-yl)carbonyl)piperidin-4-yl)-1-methyl-3-(trifluoromethyl)-1H-pyrazole-5-carboxamide]	102	–	–	50	–
Cc1cc(C(=O)N[C@@H]2CCN(C(=O)c3cc(Cl)c4nccnc4c3)C[C@@H]2c2ccccc2)n(C)n1 [Example 23B, N-((3S,4R)-1-((8-Chloroquinoxalin-6-yl)carbonyl)-3-phenylpiperidin-4-yl)-1,3-dimethyl-1H-pyrazole-5-carboxamide]	101	–	–	53	–
COc1cc(C(=O)N2CC[C@@H](NC(=O)c3c(C)nn(C)c3Cl)[C@@H](c3ccccc3)C2)cc2nccnc12 [Example 345B, 5-chloro-N-((3S,4R)-1-((8-methoxyquinoxalin-6-yl)carbonyl)-3-phenylpiperidin-4-yl)-1,3-dimethyl-1H-pyrazole-4-carboxamide]	102	–	–	48	–
Cc1cc(NC(=O)C2CC2)sc1C(=O)N1CC[C@@H](NC(=O)c2ccccc2OC(F)(F)F)[C@@H](c2ccccc2)C1 [Example 35B, N-((3S,4R)-1-((5-((cyclopropylcarbonyl)amino)-3-methyl-2-thienyl)carbonyl)-3-phenylpiperidin-4-yl)-2-(trifluoromethoxy)benzamide]	101	–	–	40	–
CN(C)CCOc1ccc(C(=O)N[C@@H]2CCN(C(=O)c3cc(Cl)c4nccnc4c3)C[C@@H]2c2ccccc2)cn1 [Example 25B, N-((3S,4R)-1-((8-chloroquinoxalin-6-yl)carbonyl)-3-phenylpiperidin-4-yl)-6-(2-(dimethylamino)ethoxy) nicotinamide]	–	100	–	–	53

Further lines, with some results ahead:

inhibition at 1 µM [2] [%]	Rate of inhibition (%) at 1 μM ([2]; 1 μM test compound, SPT2-expressing membrane fraction) [%]	SMILES	inhibition at 0.3 µM ([1]; Homo sapiens, 120 h, 0.3 μM test compound, read-out: Rate of inhibition at 0.3 μM) [%]	inhibition at 1 µM [1, 3] [%]	Rate of inhibition (%) at 1 μM ([1]; 1 μM test compound) [%]
102	–	COc1cc(C(=O)N2CC[C@@H](NC(=O)c3cc(C(F)(F)F)nn3C)[C@@H](c3ccccc3)C2)cc2nccnc12 [Example 412B, N-((3S,4R)-1-((8-Methoxyquinoxalin-6-yl)carbonyl)-3-phenylpiperidin-4-yl)-1-methyl-3-(trifluoromethyl)-1H-pyrazole-5-carboxamide]	–	47	–
101	–	COc1ccc(C(=O)N2CCC(NC(=O)c3ccccc3Cl)c3c2cnn3CCC(C)(C)O)cc1OC (centres unmarked) [Example 186A, 2-chloro-N-(4-(3,4-dimethoxybenzoyl)-1-(3-hydroxy-3-methylbutyl)-4,5,6,7-tetrahydro-1H-pyrazolo[4,3-b]pyridin-7-yl)benzamide]	–	47	–
100	–	COc1cc(C(=O)N2CC[C@@H](NC(=O)c3ncccc3C(F)(F)F)[C@@H](c3ccccc3)C2)cnc1OC [Example 64B, N-((3S,4R)-1-((5,6-dimethoxypyridin-3-yl)carbonyl)-3-phenylpiperidin-4-yl)-3-(trifluoromethyl)pyridine-2-carboxamide]	–	49	–
100	–	COc1cc(C(=O)N2CC[C@@H](NC(=O)c3cnccc3C(F)(F)F)[C@@H](c3ccccc3)C2)cnc1OC [Example 139B, N-((3S,4R)-1-((5,6-dimethoxypyridin-3-yl)carbonyl)-3-phenylpiperidin-4-yl)-4-(trifluoromethyl)nicotinamide]	–	52	–
101	–	CCn1ncc2c1[C@@H](NC(=O)c1ccccc1OC(F)(F)F)CCN2C(=O)c1cnc(OC)c(OC)c1 [Example 178A, N-((7S)-4-((5,6-Dimethoxypyridin-3-yl)carbonyl)-1-ethyl-4,5,6,7-tetrahydro-1H-pyrazolo[4,3-b]pyridin-7-yl)-2-(trifluoromethoxy)benzamide]	–	53	–
98	–	COc1ccc(C(=O)N2CCC(NC(=O)c3ccccc3Cl)c3cn(C)nc32)cc1OC (centres unmarked) [Example 3A, 2-Chloro-N-(7-(3,4-dimethoxybenzoyl)-2-methyl-4,5,6,7-tetrahydro-2H-pyrazolo[3,4-b]pyridin-4-yl)benzamide]	–	41	–
101	–	CCn1ncc2c1[C@@H](NC(=O)c1ccc(Cl)cc1C(F)(F)F)CCN2C(=O)c1cnc(OC)c(OC)c1 [Example 165A, 4-Chloro-N-((7S)-4-((5,6-dimethoxypyridin-3-yl)carbonyl)-1-ethyl-4,5,6,7-tetrahydro-1H-pyrazolo[4,3-b]pyridin-7-yl)-2-(trifluoromethyl)benzamide]	–	52	–
101	–	COc1cc(C(=O)N2CC[C@H](NC(=O)c3ccccc3OC(F)(F)F)c3c2cnn3C)cnc1OC [Example 171A, N-((7S)-4-((5,6-Dimethoxypyridin-3-yl)carbonyl)-1-methyl-4,5,6,7-tetrahydro-1H-pyrazolo[4,3-b]pyridin-7-yl)-2-(trifluoromethoxy)benzamide]	–	50	–
101	–	COc1cc(C(=O)N2CCC(NC(=O)c3ccccc3OC(F)(F)F)c3c2cnn3C)cnc1OC (centres unmarked) [Example 133A, N-(4-((5,6-Dimethoxypyridin-3-yl)carbonyl)-1-methyl-4,5,6,7-tetrahydro-1H-pyrazolo[4,3-b]pyridin-7-yl)-2-(trifluoromethoxy)benzamide]	–	50	–
101	–	CCn1ncc2c1C(NC(=O)c1ccc(Cl)cc1C(F)(F)F)CCN2C(=O)c1cnc(OC)c(OC)c1 (centres unmarked) [Example 153A, 4-Chloro-N-(4-((5,6-dimethoxypyridin-3-yl)carbonyl)-1-ethyl-4,5,6,7-tetrahydro-1H-pyrazolo[4,3-b]pyridin-7-yl)-2-(trifluoromethyl)benzamide]	–	53	–

From patent US10189785B2, “Heterocyclic compound” (TAKEDA PHARMACEUTICAL COMPANY LIMITED, priority 2015, dated 2019)
